One substance from patent US12527732B2, “Biobased polyglyceryl esters and compositions comprising the same” (Inolex Investment Corporation, priority 2021, dated 2026) can be followed below.

Type in all cases: physicochemical
A short description of data set [1]: Aqueous Solution Turbidity (AST) / water solubility and clarity of 5% and 10% aqueous solutions. The procedure: (§1) Measurement of Turbidity via Nephelometric Turbidimetry. Clarity of solutions and formulations is reported as Aqueous Solution Turbidity (AST) or Formulation Turbidity (FT) measured in nephelometric turbidity units (NTU). Turbidity values were determined on an HF Scientific Micro 100 Benchtop Turbidity Meter operating at room temperature (23° C.±2° C.). Aqueous Solution Turbidity is an inherent property of a PGE composition when measured as specified at 5% in deionized water at 23±2° C.

Data set [2] can be described thus: Critical Micelle Concentration (CMC) via equilibrium surface tensiometry. The note with it: pure water, 22° C.
Procedure: Determination of Critical Micelle Concentration (CMC) via Equilibrium Surface Tensiometry. […] Dipping distance for the plate was set to 3.00 mm prior to return to the surface within +/−0.01 mm for measurement of surface tension force. All tests were performed at 22° C.±0.2° C. For each surfactant a 1.00% stock solution in pure water was prepared and incrementally dosed into initially pure water to augment surfactant concentration while measuring surface tension after each concentration augmentation. Each surfactant was tested in duplicate runs at concentrations ranging from 0.001% to 0.500% of surfactant. The CMC value is taken at the intersection between the regression straight line of the linearly dependent region and the straight line passing through the plateau when surface tension is plotted as a function of concentration.
Data set [3] in a line: STERC via bubble pressure tensiometry. The following applies: at the CMC.
Procedure: Dynamic surface tension reduction, i.e. surface tension reduction as a function of time, is measured by bubble pressure tensiometry using the maximum bubble pressure (MBP) method. When dynamic surface tension data obtained from MBP experiments is plotted as a function of surface age, fitting of the data to a first-order decay function as in Formula (III) enables one to obtain the Surface Tension Equilibration Rate Constant (STERC) for a given surfactant at a specific concentration.
Surface Tension Equilibration Rate Constant (STERC) is calculated according to Formula (III): γt=γeq+(γi−γeq)^−t/K (III) where: • γt=surface tension at time=t, in mN/m; • γeq=equilibrium surface tension, in mN/m; • γi=initial surface tension, in mN/m; • t=time, in ms; and • K=surface tension equilibration rate constant (STERC) in ms^−1.
Determination of STERC via Bubble Pressure Tensiometry. Dynamic surface tensions were determined on a Kruss BP100 Bubble Pressure Tensiometer, using a 0.256 mm OD silane-treated glass capillary submerged to a depth of 1.00 cm for testing and buoyancy compensated. […] The STERC as reported herein is determined at the CMC and is obtained by plotting the dynamic surface tension as a function of surface age and fitting the data to the equation below to obtain a first-order rate constant for reduction of surface tension from the initial value to the equilibrium value. […]
A short description of data set [4]: Solubilization of 1% Spectrastat G2 Natural by solubilizer, Formulation Turbidity (FT). The following applies: 5% solubilizer, aqueous. On the procedure:
as §1

On to Heptyl Glucoside [CE4], for which, in data set [1] (5% in deionized water, 23±2° C.), the “AST @ 5%” value was found to be 0.65 NTU. Moreover, in data set [1] (10% in deionized water), the “AST @ 10%” value amounted to 1.2 NTU. Also, the CMC in data set [2] is 0.0672 wt %. Further, the “STERC at CMC” value in data set [3] (22° C.) is reported as 3226 ms^−1. Moreover, the STERC in data set [3] (unit printed s^−1) was found to be 3226 s⁻¹. In data set [4], this substance returned an FT of 4.21 NTU.
